According to patent US10899764B2, “Imidazo isoindole derivative, preparation method therefor and medical use thereof” (Jiangsu Hengrui Medicine Co., Ltd., priority 2015, dated 2021):
Where a name gives a salt, the structure may show the parent alone. Read-outs that look alike come from different tables or passages of the source.

Experiments:
human TDO = human TDO (Homo sapiens (Human), UniProt P48775); experiment: Inhibition activity on human TDO (tryptophan 2,3-dioxygenase) (enzyme assay, absorbance at 480 nm); format: biochemical; details: read-out: IC50 for inhibiting the activity of human TDO
Sequence of human TDO (P48775 whole entry): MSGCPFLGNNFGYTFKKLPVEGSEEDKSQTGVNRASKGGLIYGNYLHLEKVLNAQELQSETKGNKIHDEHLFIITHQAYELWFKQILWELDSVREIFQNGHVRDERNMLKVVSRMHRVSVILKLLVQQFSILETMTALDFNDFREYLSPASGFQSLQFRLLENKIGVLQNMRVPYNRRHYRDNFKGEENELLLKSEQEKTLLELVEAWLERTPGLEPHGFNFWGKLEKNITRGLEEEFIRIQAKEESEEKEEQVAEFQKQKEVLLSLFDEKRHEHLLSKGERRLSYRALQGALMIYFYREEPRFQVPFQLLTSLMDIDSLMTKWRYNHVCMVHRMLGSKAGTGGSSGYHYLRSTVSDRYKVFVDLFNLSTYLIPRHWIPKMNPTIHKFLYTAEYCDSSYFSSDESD
Protocol: Assay for Determining the Inhibition activity of the Compounds of the Present Invention on Human TDO (tryptophan 2,3-dioxygenase)
Human TDO activity was tested in vitro by the following method.
This method is used to determine the inhibition effect of the compounds of the present invention on the activity of human TDO.
Plasmids constructed with the human TDO gene were transferred to competent Escherichia coli Rosseta. The TDO gene was scaled-up by culturing in liquid LB (Luria-Bertani) medium [which was prepared per liter according to “Molecular Cloning A Laboratory Manual” (J. Sambrook, D. W. Russell)]). The bacteria were collected and lysed by ultrasonic waves. The purified TDO was obtained by eluting from a column.
For testing, 24 μL of enzyme (TDO) was diluted 100 times with 50 mM KPB to 2400 μL. The concentration of the enzyme solution was 2.6 ng/μL. A 96 well reaction plate (AXYGEN, PCR-96-FLT-C) (hereinafter referred to as the “reaction plate”) was added with the enzyme solution at 24 μL/well. The blank well was added with 24 μL of KPB [Preparation of KPB buffer (50 mM): 6.805 g of KH2PO4 was weighed using an analytical balance, and placed into a 1000 mL beaker, deionized water was added with a measuring cylinder to 900 mL, the pH was adjusted to 6.5 by 1M KOH, then the mixture was introduced into a 1 L measuring cylinder, and water was added to 1 L. It was stored at 4° C.]. Then, 1 μL of a compound or DMSO was added into the corresponding wells in the reaction plate. Preparation of solution A: 200 μL of 500 mM L-sodium ascorbate was added with 1050 μL of KPB, then the mixture was mixed uniformly for 3 seconds at the maximum speed in a turbine mixer. Solution B: 100 μL of 10 mM tryptophan was added with 100 μL of 100,000 unit/ml catalase, 5 μL of 10 mM methylene blue, and 1050 μL of KPB successively, then the mixture was mixed uniformly for 3 seconds at the maximum speed in a turbine mixer. Then, 1200 μL of solution A and 1200 μL of solution B were taken and mixed uniformly for 3 seconds at the maximum speed in a turbine mixer. The mixture was added to the reaction plate at 24 μL/well. The reaction plate was placed in a plate centrifuge and centrifuged for 15 seconds at the maximum speed, so that the reaction liquids converged to the bottom. The reaction mixture was mixed uniformly for 30 seconds on a shaker, and incubated for 1 hour at 37° C. in a constant temperature incubator. In the reaction plate, 30% (W/V) trichloroacetic acid was added at 10 μL/well, then the mixture was incubated for 15 minutes at 65° C. in a incubator. The reaction plate was centrifuged in a centrifuge for 5 minutes at 4700 RPM at room temperature. […] Then, 2% (W/V) 4-(dimethylamino)benzaldehyde/glacial acetic acid solution was added at 40 μL/well, then the mixture was mixed uniformly for 1 minute on a shaker at the maximum speed. After incubation for 2 minutes at room temperature, the absorbance at 480 nm was read on a Synergy HT Reader.
The inhibition activity of the compounds of the present invention on human TDO was tested by the assay described above.

IDO in HeLa cells = IDO in HeLa cells (Homo sapiens (Human), UniProt P14902); experiment: Inhibition activity on IDO in HeLa cells (INF-γ induced); format: cell-based; details: HeLa cells, INF-γ and tryptophan, 48 hours; read-out: IC50 for inhibiting the activity of IDO in HeLa cells
Sequence of IDO in HeLa cells (P14902 whole entry): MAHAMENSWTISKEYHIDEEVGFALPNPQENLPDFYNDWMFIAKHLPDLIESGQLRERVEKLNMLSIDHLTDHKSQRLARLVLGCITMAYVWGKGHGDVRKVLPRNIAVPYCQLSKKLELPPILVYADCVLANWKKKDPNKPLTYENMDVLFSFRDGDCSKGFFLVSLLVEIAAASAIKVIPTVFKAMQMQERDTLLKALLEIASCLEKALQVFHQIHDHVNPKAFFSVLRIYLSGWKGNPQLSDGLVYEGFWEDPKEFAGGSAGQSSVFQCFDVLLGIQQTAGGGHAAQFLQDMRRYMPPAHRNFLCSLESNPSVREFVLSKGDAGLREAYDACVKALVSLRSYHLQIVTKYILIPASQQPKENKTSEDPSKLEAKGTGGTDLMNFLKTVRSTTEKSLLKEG
Protocol: Assay for Determining the Inhibition Activity of the Present Compounds on IDO in HeLa Cells
IDO activity in HeLa cells was tested in vitro by the following method.
This method is used to determine the inhibition effect of the compounds of the present invention on the activity of IDO in HeLa cells. (Note: indoleamine 2,3-dioxygenase (IDO) is expressed in the HeLa cell line and induced by interferon gamma (INF-γ)).
The supernatant was removed, serum-free DMEM high glucose medium was added at 90 μL/well, then the compounds contained in the culture medium with INF-γ and tryptophan were added at 10 μL/well (the final concentrations: 10000, 1000, 100, 10, 1, 0.1 nM). […] Then, 80 μL of the supernate was transferred from the 96-well cell culture plate to a 96 well round-bottomed plate, then 30% (W/V) trichloroacetic acid was added at 16 μL/well, then the mixture was incubated for 25 minutes at 65° C. in an incubator. The reaction plate was centrifuged in a centrifuge for 5 minutes at 4700 RPM. Then, 50 μL of the supernatant was transferred from the reaction plate to a 96-well flat-bottomed transparent plate by a multi-channel pipette. Then, 2% (W/V) 4-(dimethylamino)benzaldehyde/glacial acetic acid solution was added at 50 μL/well, then the mixture was mixed uniformly for 1 minute on a shaker. After incubation for 2 minutes at room temperature, the absorbance at 480 nm was read on a Synergy HT Reader.
The inhibition activity of the compounds of the present invention on IDO in HeLa cells was tested by the assay described above.

SMILES	IC50 (human TDO; purified recombinant human TDO, 1 hour at 37° C.) [nM]	IC50 (IDO in HeLa cells) [nM]	IC50 (human TDO) [nM]
OCCn1cc(-c2ccc(N3CCC([C@H]4c5c(F)cccc5-c5cncn54)CC3)cc2)cn1 [Example 41, (S)-2-(4-(4-(4-(6-fluoro-5H-imidazo[5,1-a]isoindol-5-yl)piperidin-1-yl)phenyl)-1H-pyrazol-1-yl)ethanol]	42	47.7	–
Fc1cccc(N2CCC(C3c4c(F)cccc4-c4cncn43)CC2)c1 (stereo not shown) [Example 3, 6-fluoro-5-(1-(3-fluorophenyl)piperidin-4-yl)-5H-imidazo[5,1-a]isoindole trifluoroacetate]	–	167	371
